Laboratory results: US8987195B2 (priority 2012, dated 2015)
pEC50, pIC50: −log10 of the molar value.

Legend:
HCV genotype 1b replicon = assay: HCV replicon assay, genotype 1b replicon EC50; format: cell-based, Hepatitis C virus; details: Hepatitis C virus, HCV replicon, genotype 1b; read-out: EC50 [gt-1b]
Procedure, shortened: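 Cells harbouring a stable replicon are grown under G418 selection, then plated with test compound in G418-free medium for 24-48 hours. After washing and lysis, RNA or luciferase signal is measured and expressed as percent of DMSO control to give EC50.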

[1] = target: HCV NS3/4A protease genotype 1b (Hepatitis C virus genotype 1b, UniProt P26663); assay: HCV NS3/4A protease time-resolved fluorescence (TRF) assay, Ki against genotype 1b; format: biochemical; details: IC50 [gt-1b], NS3/4A protease TRF assay, genotype 1b enzyme 0.2 nM
Procedure, shortened: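 Ki was converted from fitted IC50 using IC50=Ki(1+[S]/KM) and 25 nM substrate. Protease (genotype 1b 0.2 nM, A156T 0.4 nM, 3a 0.025 nM) and compound were pre-mixed 30 min in pH 7.5 HEPES/NaCl/glycerol/DTT buffer. Cleavage then proceeded 2.5 h at room temperature, detected by time-resolved europium fluorescence (340/615 nm).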

Row | SMILES | pEC50 (HCV genotype 1b replicon) | pIC50 [1]
1 | Cc1ccc2nc(C(F)(F)F)c3c(c2c1)CC[C@]1(C[C@H]2C(=O)N[C@]4(C(=O)NS(=O)(=O)C5(C)CC5)C[C@H]4/C=C\CCCCC[C@H](NC(=O)OCCCN4CCOCC4)C(=O)N2C1)O3 [Example 424, 3-(morpholin-4-yl)propyl [(2R,6S,12Z,13aS,14aR,16aS)-9′-methyl-14a-{[(1-methylcyclopropyl)sulfonyl]carbamoyl}-5,16-dioxo-5′-(trifluoromethyl)-1,1′,2′,5,6,7,8,9,10,11,13a,14,14a,15,16,16a-hexadecahydrospiro[cyclopropa[e]pyrrolo[1,2-a][1,4]diazacyclopentadecine-2,3′-pyrano[2,3-c]quinolin]-6-yl]carbamate] | 7.82 | 10.48
2 | Cc1nc2ccc(OCCN3CCOCC3)cc2c2c1O[C@]1(CC2)C[C@H]2C(=O)N[C@]3(C(=O)NS(=O)(=O)C4(C)CC4)C[C@H]3/C=C\CCCCC[C@H](NC(=O)OCC(C)(C)C)C(=O)N2C1 [Example 425, 2,2-dimethylpropyl {(2R,6S,12Z,13aS,14aR,16aS)-5′-methyl-14a-{[(1-methylcyclopropyl)sulfonyl]carbamoyl}-9′-[2-(morpholin-4-yl)ethoxy]-5,16-dioxo-1,1′,2′,5,6,7,8,9,10,11,13a,14,14a,15,16,16a-hexadecahydrospiro[cyclopropa[e]pyrrolo[1,2-a][1,4]diazacyclopentadecine-2,3′-pyrano[2,3-c]quinolin]-6-yl}carbamate] | 8.48 | 10.62
3 | COc1ccc2nc(C(F)(F)F)c3c(c2c1)[C@@H](F)C[C@]1(C[C@H]2C(=O)N[C@]4(C(=O)NS(=O)(=O)C5(C)CC5)C[C@H]4/C=C\CCCCC[C@H](NC(=O)OC(C)(C)C)C(=O)N2C1)O3 [Example 426, tert-butyl [(l′S,2S,6S,12Z,13aS,14aR,16aS)-1′-fluoro-9′-methoxy-14a-{[(1-methylcyclopropyl)sulfonyl]carbamoyl}-5,16-dioxo-5′-(trifluoromethyl)-1,1′,2′,5,6,7,8,9,10,11,13a,14,14a,15,16,16a-hexadecahydrospiro[cyclopropa[e]pyrrolo[1,2-a][1,4]diazacyclopentadecine-2,3′-pyrano[2,3-c]quinolin]-6-yl]carbamate] | 7.67 | 9.22
4 | COc1ccc2nc(C(F)(F)F)c3c(c2c1)[C@H](F)C[C@]1(C[C@H]2C(=O)N[C@]4(C(=O)NS(=O)(=O)C5(C)CC5)C[C@H]4/C=C\CCCCC[C@H](NC(=O)OC(C)(C)C)C(=O)N2C1)O3 [Example 427, tert-butyl [(l′R,2S,6S,12Z,13aS,14aR,16aS)-1′-fluoro-9′-methoxy-14a-{[(1-methylcyclopropyl)sulfonyl]carbamoyl}-5,16-dioxo-5′-(trifluoromethyl)-1,1′,2′,5,6,7,8,9,10,11,13a,14,14a,15,16,16a-hexadecahydrospiro[cyclopropa[e]pyrrolo[1,2-a][1,4]diazacyclopentadecine-2,3′-pyrano[2,3-c]quinolin]-6-yl]carbamate] | 8.84 | 10.82
5 | COc1ccc2nc(C3CC3)c3c(c2c1)[C@H](F)C[C@]1(C[C@H]2C(=O)N[C@]4(C(=O)NS(=O)(=O)C5(C)CC5)C[C@H]4/C=C\CCCCC[C@H](NC(=O)OC(C)(C)C)C(=O)N2C1)O3 [Example 428, tert-butyl [(l′R,2S,6S,12Z,13aS,14aR,16aS)-5′-cyclopropyl-1′-fluoro-9′-methoxy-14a-{[(1-methylcyclopropyl)sulfonyl]carbamoyl}-5,16-dioxo-1,1′,2′,5,6,7,8,9,10,11,13a,14,14a,15,16,16a-hexadecahydrospiro[cyclopropa[e]pyrrolo[1,2-a][1,4]diazacyclopentadecine-2,3′-pyrano[2,3-c]quinolin]-6-yl]carbamate] | 8.66 | 10.70
